Test results reported in the NIST ThermoML archive (doi:10.1016/j.jct.2004.11.017).

Assay: xn = mol fraction of the nth substance listed
Conditions: 101 kPa, Liquid

CC[S+]([O-])CC [diethyl sulfoxide] + O
mass density [kg/m3]
Conditions	323.15 K	328.15 K	333.15 K	338.15 K	343.15 K
x1 = 0.0997	1009.6	1005.8	1001.8	997.8	993.7
x1 = 0.1996	1016.3	1011.8	1005.9	1001.3	997.1
x1 = 0.2517	1015.8	1011.2	1006.4	1001.7	996.9
x1 = 0.2978	1015	1010.3	1005.6	1000.8	996
x1 = 0.3481	1013	1008.3	1003.6	998.9	994.1
x1 = 0.3946	1012	1007.3	1002.6	997.8	993
x1 = 0.4496	1009.2	1004.5	999.9	995.2	990.5
x1 = 0.5053	1007.1	1002.5	997.9	993.2	988.5
x1 = 0.5962	1004.2	999.6	995	990.4	985.7
x1 = 0.6971	999.8	995.3	990.8	986.2	981.7
x1 = 0.8061	996.4	991.9	987.4	982.9	978.4
x1 = 0.8946	993.5	989.1	984.7	980.2	975.7
x1 = 1	988.2	983.9	979.5	975.1	970.6
